Reference: patent publication US20160311760A1, “COMPOUNDS FOR TREATMENT OF CARDIAC ARRHYTHMIAS” (ELEX BIOTECH, LLC, priority 2013, published 2016)

Key:
RyR2 [1] = molecular target: T1, RyR2 (Mus musculus, UniProt E9Q401); experiment: Ca2+ spark frequency assay in ventricular myocytes from CPVT mouse model (R176Q/+); assay type: cell-based; conditions: cells derived from a CPVT mouse model (R176Q/+ ventricular myocytes); read-out: IC50 (inhibition of calcium spark frequency)
T1 construct: other: cells derived from a CPVT mouse model (R176Q/+ ventricular myocyte)
From the text: (§1) Therein, calcium spark frequency data are shown in the presence of increasing amounts of added compound. IC50 is a measure of the effectiveness of a substance in inhibiting a particular biological process or function. Calcium spark frequency is plotted along the y-axis and compound concentration is plotted along the x-axis. Example dose-response curve 120 is included to illustrate the inhibitory effect of Compound 1 on spark frequency for the cells derived from a CPVT mouse model. The quantitative value of IC50 can be determined by identifying the concentration where half of the maximum biological response, such as the calcium spark response, is inhibited. For example, at lower compound concentrations dose-response curve 110 has a higher level of calcium spark frequency, whereas at higher compound concentrations, a transition of the calcium spark frequency to a lower level is observed. The concentration at which the sigmoidal curve of data response curve 120 has a spark frequency reduced by half corresponds to the IC50. […] Thus, as one example, a method for treating cardiac arrhythmias may include administering an amount of Compound 1 to a subject afflicted with heart arrhythmias. The administration may be performed via known routes, such as oral, epidermal, subcutaneous, intravenous, peritoneal, etc.
(§2) Functional Assays in CPVT mouse cells may include isolating ventricular cardiomyocytes from adult (2-3 month-old) R176Q/+ mice or WT littermates. In one exemplary assay, myocytes were loaded with 2 μM Fluo-4-AM in a normal Tyrode solution containing 1.8 mM Ca2+ for 30 minutes at room temperature before washing the cells with Tyrode solution for 15 minutes for de-esterification and transfering to a chamber equipped with parallel platinum electrodes.
(§3) After baseline measurements were completed, myocytes were exposed to the test lead compound. After a 5 min superfusion period, Ca2+ sparks were again measured in the same cell in the presence of the drug compound. The frequency of Ca2+ sparks (CaSpF) were calculated, e.g., using SparkMaster (Picht, E., et al., SparkMaster: automated calcium spark analysis with ImageJ. Am J Physiol Cell Physiol, 2007. 293(3): p. C1073-81), and applications before and after inclusion of the test compound were compared. A detailed dose-response relationship and measurements of inhibition of arrhythmogenic Ca2+ waves in ventricular myocytes from a CPVT mouse model (R176Q/+) were then completed on those compounds showing a significant decrease in spark frequency at 0.5 μM. At the conclusion of these experiments, the Ca2+ spark inhibition rate is calculated as a function of concentration for each compound tested, and an IC50 value determined for each drug compound. […] FIG. 4 compares an exemplary confocal line-scan image of Ca2+ spark recordings from ventricular myocytes isolated from wild-type (WT) mice at 410 relative to those isolated from S2814D mice as shown at 420.
(§4) The above-discussed Ca2+ spark assay was used with R176Q/+ myocytes as an initial screening assay to test the ability of new compounds to inhibit spontaneous pathological SR Ca2+ release in ventricular myocytes.

RyR2 [2] = experiment: as above; assay type: cell-based; conditions: versus tetracaine
From the text: as §1, §2, §3, §4

R176Q/+ mice = experiment: Arrhythmias (ventricular tachycardia) after cardiac pacing / programmed electrical stimulation in CPVT mice, whole animal level; assay type: in vivo, mouse
From the text: Ventricular tachycardia (or VT) is a type of tachycardia, or a rapid heart beat that arises from improper electrical activity of the heart that presents as a rapid heart rhythm. VT is associated with the bottom chambers of the heart, called the ventricles, which are pumping chambers of the heart. […] Therein, electrical signals for four different CPVT mice are shown. Wild type (or WT) signal 210 is provided for reference to illustrate a sinus rhythm (e.g., L2-ECG, lead 2 of the surface ECG). Atrial and ventricular intracardiac electrocardiogram signals are also provided for reference.

in vitro [3] = conditions: human
[4] = Effect on the length of the AP
Description: (§5) For example, the concentration of lead compound Compound 1 that suppressed ventricular tachycardia is approximately 0.5% of compound K201 (JTV519) that was previously used to inhibit arrhythmias in a similar mouse model. […] Therefore, advantages exist with regard to reduction of dosage response time compared to previously used drugs to inhibit arrhythmias. […] While Compound 1 inhibits sparks and arrhythmias at 35 nM, the ATPase activity of SERCA2 has been measured versus concentration of Compound 1. At concentrations of 1 μM, 10 μM and 50 μM, ATPase activity was unaffected (data not shown). The data shown in FIGS. 2 and 3 have been repeated several times with different animals (e.g., rabbit model).

in vitro [5] = conditions: human; remark: listed apart in the source
SERCA2 = SERCA2 (Homo sapiens, UniProt P16615); experiment: ATPase activity of SERCA2 versus concentration; assay type: biochemical
Description: as §5

RyR = RyR (Oryctolagus cuniculus, UniProt P11716); conditions: literature value; cited from earlier work
Cytotoxicity in HEK293 = conditions: human, HEK293 cells
Cytotoxicity in HepG2 = conditions: human, HepG2 cells

T1 sequence (E9Q401 whole entry R176Q, form open): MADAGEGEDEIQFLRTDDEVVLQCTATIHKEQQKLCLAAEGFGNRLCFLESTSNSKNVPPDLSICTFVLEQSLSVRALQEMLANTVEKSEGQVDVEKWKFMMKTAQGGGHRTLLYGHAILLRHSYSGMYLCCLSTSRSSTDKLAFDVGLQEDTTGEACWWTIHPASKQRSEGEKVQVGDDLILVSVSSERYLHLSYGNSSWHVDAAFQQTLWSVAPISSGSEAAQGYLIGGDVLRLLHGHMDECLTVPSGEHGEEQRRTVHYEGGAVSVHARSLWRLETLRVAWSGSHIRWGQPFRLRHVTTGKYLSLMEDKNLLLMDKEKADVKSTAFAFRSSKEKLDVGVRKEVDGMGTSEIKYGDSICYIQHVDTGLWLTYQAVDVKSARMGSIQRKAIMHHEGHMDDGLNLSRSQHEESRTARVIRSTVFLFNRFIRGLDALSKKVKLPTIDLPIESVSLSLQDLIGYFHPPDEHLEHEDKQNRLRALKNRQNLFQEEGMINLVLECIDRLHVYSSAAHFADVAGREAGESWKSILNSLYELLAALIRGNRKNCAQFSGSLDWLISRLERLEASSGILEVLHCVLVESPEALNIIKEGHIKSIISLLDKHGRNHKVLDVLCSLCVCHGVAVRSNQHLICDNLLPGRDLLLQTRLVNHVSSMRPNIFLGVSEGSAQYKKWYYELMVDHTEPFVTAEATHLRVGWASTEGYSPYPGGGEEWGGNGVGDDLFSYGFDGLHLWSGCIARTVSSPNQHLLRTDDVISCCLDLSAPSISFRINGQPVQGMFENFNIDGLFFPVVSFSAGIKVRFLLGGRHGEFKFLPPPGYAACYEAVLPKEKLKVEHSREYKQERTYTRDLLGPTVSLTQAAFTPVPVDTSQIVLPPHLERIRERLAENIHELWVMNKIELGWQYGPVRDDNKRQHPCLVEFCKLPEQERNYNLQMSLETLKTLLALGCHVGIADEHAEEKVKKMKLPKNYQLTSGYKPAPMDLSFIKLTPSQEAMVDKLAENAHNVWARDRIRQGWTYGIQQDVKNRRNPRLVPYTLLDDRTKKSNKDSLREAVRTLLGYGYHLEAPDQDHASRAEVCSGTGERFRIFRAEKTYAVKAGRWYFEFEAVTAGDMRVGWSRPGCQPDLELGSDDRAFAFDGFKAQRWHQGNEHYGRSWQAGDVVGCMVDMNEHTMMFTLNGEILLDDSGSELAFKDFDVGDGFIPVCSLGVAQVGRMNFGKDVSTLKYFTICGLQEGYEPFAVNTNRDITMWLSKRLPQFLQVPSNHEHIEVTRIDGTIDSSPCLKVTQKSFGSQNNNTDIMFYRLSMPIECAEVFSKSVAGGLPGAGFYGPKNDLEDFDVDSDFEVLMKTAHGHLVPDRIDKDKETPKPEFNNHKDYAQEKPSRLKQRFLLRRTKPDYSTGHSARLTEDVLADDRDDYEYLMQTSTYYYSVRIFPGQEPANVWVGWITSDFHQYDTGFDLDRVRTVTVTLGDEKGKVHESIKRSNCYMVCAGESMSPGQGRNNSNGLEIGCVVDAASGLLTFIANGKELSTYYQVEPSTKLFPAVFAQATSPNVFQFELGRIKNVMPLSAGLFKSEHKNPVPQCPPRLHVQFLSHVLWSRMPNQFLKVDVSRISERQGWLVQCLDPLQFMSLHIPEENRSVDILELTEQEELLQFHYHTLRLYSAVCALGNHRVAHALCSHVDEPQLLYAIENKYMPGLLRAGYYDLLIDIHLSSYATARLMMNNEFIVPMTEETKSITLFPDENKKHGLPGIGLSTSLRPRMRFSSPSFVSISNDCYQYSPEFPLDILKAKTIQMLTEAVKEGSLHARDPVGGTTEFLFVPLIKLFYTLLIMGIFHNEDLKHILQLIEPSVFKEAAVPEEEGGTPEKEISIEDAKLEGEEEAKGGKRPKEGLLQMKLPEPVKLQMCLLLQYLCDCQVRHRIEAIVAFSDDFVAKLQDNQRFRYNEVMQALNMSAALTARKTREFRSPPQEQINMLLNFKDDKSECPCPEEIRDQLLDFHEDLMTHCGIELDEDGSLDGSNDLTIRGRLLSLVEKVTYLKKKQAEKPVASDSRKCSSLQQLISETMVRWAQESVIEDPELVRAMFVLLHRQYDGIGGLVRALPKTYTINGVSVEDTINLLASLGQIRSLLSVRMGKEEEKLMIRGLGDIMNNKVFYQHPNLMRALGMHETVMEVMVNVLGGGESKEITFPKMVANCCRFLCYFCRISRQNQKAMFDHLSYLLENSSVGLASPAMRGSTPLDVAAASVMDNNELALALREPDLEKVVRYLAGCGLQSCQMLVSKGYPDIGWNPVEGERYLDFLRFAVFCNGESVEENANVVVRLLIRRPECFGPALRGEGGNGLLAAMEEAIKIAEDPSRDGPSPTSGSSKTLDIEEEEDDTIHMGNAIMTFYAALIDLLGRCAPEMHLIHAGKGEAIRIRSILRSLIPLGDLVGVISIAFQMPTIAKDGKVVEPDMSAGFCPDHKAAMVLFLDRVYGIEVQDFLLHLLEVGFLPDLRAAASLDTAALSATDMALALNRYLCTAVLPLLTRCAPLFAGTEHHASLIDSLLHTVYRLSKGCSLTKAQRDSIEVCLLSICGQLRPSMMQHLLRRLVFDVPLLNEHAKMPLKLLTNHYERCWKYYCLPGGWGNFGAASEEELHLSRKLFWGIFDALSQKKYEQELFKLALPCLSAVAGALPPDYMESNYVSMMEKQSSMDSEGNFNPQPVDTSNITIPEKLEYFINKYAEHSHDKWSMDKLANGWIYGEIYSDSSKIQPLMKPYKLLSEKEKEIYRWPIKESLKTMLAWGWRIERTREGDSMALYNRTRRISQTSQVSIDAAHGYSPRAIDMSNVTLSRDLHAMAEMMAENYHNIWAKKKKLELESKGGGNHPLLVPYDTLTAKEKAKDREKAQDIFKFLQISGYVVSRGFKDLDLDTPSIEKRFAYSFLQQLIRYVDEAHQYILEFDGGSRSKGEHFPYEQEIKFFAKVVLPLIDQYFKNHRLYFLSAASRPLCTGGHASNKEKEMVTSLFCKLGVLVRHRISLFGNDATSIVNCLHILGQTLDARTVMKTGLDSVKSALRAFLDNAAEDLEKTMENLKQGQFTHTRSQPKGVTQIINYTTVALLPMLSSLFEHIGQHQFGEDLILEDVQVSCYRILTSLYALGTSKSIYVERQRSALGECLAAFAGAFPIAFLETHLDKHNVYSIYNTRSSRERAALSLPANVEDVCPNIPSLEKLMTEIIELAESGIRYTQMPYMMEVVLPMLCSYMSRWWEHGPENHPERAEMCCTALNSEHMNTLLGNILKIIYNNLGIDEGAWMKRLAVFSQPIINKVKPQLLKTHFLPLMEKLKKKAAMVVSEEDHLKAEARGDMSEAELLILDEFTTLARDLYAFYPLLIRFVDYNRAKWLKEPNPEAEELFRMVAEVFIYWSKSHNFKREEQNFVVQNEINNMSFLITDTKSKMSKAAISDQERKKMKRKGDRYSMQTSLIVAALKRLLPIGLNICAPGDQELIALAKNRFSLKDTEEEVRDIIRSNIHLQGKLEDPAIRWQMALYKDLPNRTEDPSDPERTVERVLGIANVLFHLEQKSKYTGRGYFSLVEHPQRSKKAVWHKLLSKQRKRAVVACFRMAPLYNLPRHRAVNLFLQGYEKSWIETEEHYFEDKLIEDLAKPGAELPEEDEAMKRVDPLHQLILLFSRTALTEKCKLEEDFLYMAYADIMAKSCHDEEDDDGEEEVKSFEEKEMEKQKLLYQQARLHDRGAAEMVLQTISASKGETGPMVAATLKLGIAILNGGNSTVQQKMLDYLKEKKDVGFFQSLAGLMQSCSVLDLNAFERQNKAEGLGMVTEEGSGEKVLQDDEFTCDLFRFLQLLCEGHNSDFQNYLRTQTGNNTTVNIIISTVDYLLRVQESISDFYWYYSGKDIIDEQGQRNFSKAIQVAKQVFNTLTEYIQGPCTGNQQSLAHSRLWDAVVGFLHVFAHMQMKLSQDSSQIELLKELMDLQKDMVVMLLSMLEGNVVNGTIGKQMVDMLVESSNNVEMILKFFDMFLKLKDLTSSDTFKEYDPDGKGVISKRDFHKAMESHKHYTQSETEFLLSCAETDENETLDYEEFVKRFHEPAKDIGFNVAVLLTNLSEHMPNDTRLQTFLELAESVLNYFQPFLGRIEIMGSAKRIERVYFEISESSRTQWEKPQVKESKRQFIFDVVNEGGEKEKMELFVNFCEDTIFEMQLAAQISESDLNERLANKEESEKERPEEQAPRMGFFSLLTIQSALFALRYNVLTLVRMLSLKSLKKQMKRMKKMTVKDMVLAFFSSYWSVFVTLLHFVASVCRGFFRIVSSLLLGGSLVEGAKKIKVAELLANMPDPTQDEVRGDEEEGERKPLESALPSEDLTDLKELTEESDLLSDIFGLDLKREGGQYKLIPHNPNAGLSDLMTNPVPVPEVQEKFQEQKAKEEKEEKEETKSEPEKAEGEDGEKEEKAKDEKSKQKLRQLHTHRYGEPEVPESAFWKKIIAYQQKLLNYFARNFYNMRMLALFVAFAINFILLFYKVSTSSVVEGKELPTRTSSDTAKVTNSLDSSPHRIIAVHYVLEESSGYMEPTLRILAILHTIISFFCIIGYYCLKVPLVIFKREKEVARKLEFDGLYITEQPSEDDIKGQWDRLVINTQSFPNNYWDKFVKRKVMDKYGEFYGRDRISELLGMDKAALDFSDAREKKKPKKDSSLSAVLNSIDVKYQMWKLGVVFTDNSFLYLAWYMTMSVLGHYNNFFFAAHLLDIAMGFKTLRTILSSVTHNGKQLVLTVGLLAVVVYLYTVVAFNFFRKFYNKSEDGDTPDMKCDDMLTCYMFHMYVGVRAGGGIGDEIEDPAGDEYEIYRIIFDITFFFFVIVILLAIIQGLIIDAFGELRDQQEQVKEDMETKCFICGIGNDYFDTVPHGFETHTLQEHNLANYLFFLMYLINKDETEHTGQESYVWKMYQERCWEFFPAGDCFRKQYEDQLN

SMILES	IC50 (RyR2 [1])	IC50 (in vitro [3])	IC50 (in vitro [5])	further results
CCCCNc1ccc(C(=O)OCCN(CC)CC)c(OC)c1 [Compound 1]	0.035 µM	> 50 µM	> 50 µM	potency relative to the parent molecule tetracaine (inhibiting RyR2 activity / CRC) (RyR2 [2]): ~3000 times; level at which arrhythmias are decreased in the whole animal (R176Q/+ mice; CPVT mice, whole animal level): 2.5 µg/kg; concentration with antiarrhythmic activity, as share of that of flecainide (R176Q/+ mice; CPVT mouse model, versus flecainide): 0.1%; arrhythmic development following pacing (R176Q/+ mice; R176Q/+ mice, cardiac pacing, ECG (FIG. 2)): protected from arrhythmic development following pacing; time to inhibition of arrhythmias (R176Q/+ mice; injected in the tail of the mouse): ≤ 10 min; concentration that suppressed ventricular tachycardia, as share of that of K201 (JTV519) (R176Q/+ mice; versus K201 in a similar mouse model): approximately 0.5%; effect on the length of the AP [4]: No indication has been observed that Compound 1 has any effect on the length of the AP; ATPase activity of SERCA2 (SERCA2; 1 μM): unaffected; ATPase activity of SERCA2 (SERCA2; 10 μM): unaffected; ATPase activity of SERCA2 (SERCA2; 50 μM): unaffected
CCCCNc1cc(OC)c(C(=O)OCCN(CC)CC)cc1Cl [Compound 2]	0.011 µM	> 50 µM	> 50 µM	
CCCCNc1ccc(C(=O)OCCN(C)C)cc1.Cl [Tetracaine]				concentration at which the RyR is inhibited (RyR): ~150 µM; IC50 (Cytotoxicity in HEK293): > 50 µM; IC50 (Cytotoxicity in HepG2): > 50 µM

Second part, led by results:

IC50 (RyR2 [1])	IC50 (in vitro [3])	IC50 (in vitro [5])	SMILES	further results
0.5 µM	> 50 µM	> 50 µM	CCCCNc1ccc(C(=O)O)cc1N(CCCC)CCCC [Compound 3]	
0.63 µM			CCCCNc1ccc(OC(C)=O)cc1C [Compound 4]	
0.8 µM	> 50 µM	> 50 µM	CCCCNc1ccc(C(=O)OCCNCC)cc1C [Compound 5]	
